Experimental data taken from patent publication US8466290B2, “STAT3 inhibitor containing quinolinecarboxamide derivative as active ingredient” (Pharma IP General Incorporated Association, priority 2008, dated 2013).

Tests used:
[1] = system: STAT3; assay: STAT3 transcription inhibition test (reporter gene method, oncostatin M stimulation); format: cell-based; conditions: Homo sapiens; compound at 100 μM; STAT3 reporter HeLa stable cell line; oncostatin M 10 ng/mL, 4 hours; read-out: STAT3 transcription inhibitory activity (%)
Procedure: The inhibition of STAT3 transcription was evaluated by using STAT3 reporter HeLa stable cell line (Panomics Inc., catalog No. RC0003), a cell line for the reporter gene method, and performing the following method according to the appendix included therein.
STAT3 reporter HeLa stable cell line subcultured and maintained in a Dulbecco's modified Eagle's medium (DMEM) containing 10% fetal bovine serum, 100 units/mL penicillin, and 100 μg/mL streptomycin was inoculated at a concentration of 40000 cells/well to a 96-well plate (white) and attached to the plate by overnight incubation at 37° C. under 5% CO2. After addition of each evaluation compound adjusted to various concentrations (adjusted with a DMSO solution), the cells were precultured for 1 hour. Then, oncostatin M for activating STAT3 was added at a final concentration 10 ng/mL, and the cells were further cultured at 37° C. under 5% CO2 for 4 hours. Luciferase activity derived from the cells was determined using Steady-Glo Luciferase Assay System (Promega Corp.), and STAT3 transcriptional activity scores were calculated according to the following formula: STAT3 transcriptional activity score (%)=100×(Lchem−L0)/(LDMSO−L0) Lo: luminescence intensity obtained without stimulation with oncostatin M Lchem: luminescence intensity obtained by the addition of a test sample LDMSO: luminescence intensity obtained by the addition of only a solvent for dissolving a test sample

[2] = system: MDA-MB-435S; assay: MDA-MB-435S cell growth inhibitory activity; format: cell-based; conditions: Homo sapiens, compound at 20 μM, 72 hours, read-out: Cell growth inhibitory activity (%)
Procedure: […] Each well was washed three times with a medium. Then, after addition of 100 μL/well of a medium and 20 μL/well of CellTiter 96 AQueous One Solution Reagent (Promega Corp.), the cells were incubated at 37° C. for 2 hours in the presence of 5% CO2.

Row | Compound | inhibition at 100 µM [1] | inhibition at 20 µM [2]
1 | Cc1ccc(-c2cc(C(=O)Nc3nnc(-c4ccco4)o3)c3ccccc3n2)o1 [Ia-64, N-[5-(2-furyl)-1,3,4-oxadiazol-2-yl]-2-(5-methyl-2-furyl)-4-quinolinecarboxamide] | > 100% | 57%
2 | COc1ccc(-c2cc(C(=O)Nc3nnc(-c4ccco4)o3)c3ccccc3n2)cc1 [Ia-51, N-[5-(2-furyl)-1,3,4-oxadiazol-2-yl]-2-(4-methoxyphenyl)-4-quinolinecarboxamide] | > 100% | 56%
3 | O=C(Nc1nnc(-c2ccco2)o1)c1cc(-c2ccccc2)nc2ccc(-c3cccnc3)cc12 [Ia-100, N-[5-(2-furyl)-1,3,4-oxadiazol-2-yl]-6-(3-pyridyl)-2-phenyl-4-quinolinecarboxamide] | 92% | 76%
4 | O=C(Nc1nnc(-c2ccco2)o1)c1cc(-c2cccs2)nc2ccc(Cl)cc12 [Ia-30, 6-chloro-N-[5-(2-furyl)-1,3,4-oxadiazol-2-yl]-2-(2-thienyl)-4-quinolinecarboxamide] | 62% | > 100%
5 | COc1ccc(-c2nnc(NC(=O)c3cc(-c4ccccc4)nc4ccc(OC(F)(F)F)cc34)o2)cc1 [Ia-117, N-[5-(4-methoxyphenyl)-1,3,4-oxadiazol-2-yl]-2-phenyl-6-trifluoromethoxy-4-quinolinecarboxamide] | 87% | 85%
6 | O=C(Nc1nnc(-c2ccco2)o1)c1cc(-c2ccc3c(c2)OCO3)nc2ccccc12 [Ia-58, N-[5-(2-furyl)-1,3,4-oxadiazol-2-yl]-2-(3,4-methylenedioxyphenyl)-4-quinolinecarboxamide] | > 100% | 58%
7 | O=C(Nc1nnc(-c2ccco2)o1)c1cc(-c2ccccc2)nc2ccc(-c3ccccc3)cc12 [Ia-75, N-[5-(2-furyl)-1,3,4-oxadiazol-2-yl]-2,6-diphenyl-4-quinolinecarboxamide] | > 100% | 64%
8 | Cc1ccc(-c2cc(C(=O)Nc3nnc(-c4ccco4)o3)c3cccc(C)c3n2)cc1 [Ia-27, N-[5-(2-furyl)-1,3,4-oxadiazol-2-yl]-8-methyl-2-(4-tolyl)-4-quinolinecarboxamide] | 71% | 99%
9 | O=C(Nc1nnc(-c2ccccc2)o1)c1cc(-c2ccccc2)nc2ccccc12 [Ia-3, 2-phenyl-N-(5-phenyl-1,3,4-oxadiazol-2-yl)-4-quinolinecarboxamide] | > 100% | 53%
10 | O=C(Nc1nnc(-c2ccco2)o1)c1cc(-c2ccccc2)nc2ccc(Br)cc12 [Ia-68, 6-bromo-N-[5-(2-furyl)-1,3,4-oxadiazol-2-yl]-2-phenyl-4-quinolinecarboxamide] | > 100% | 63%
11 | COc1ccc2nc(-c3ccccc3)cc(C(=O)Nc3nnc(-c4ccco4)o3)c2c1 [Ia-23, N-[5-(2-furyl)-1,3,4-oxadiazol-2-yl]-6-methoxy-2-phenyl-4-quinolinecarboxamide] | 100% | 50%
12 | O=C(Nc1nnc(-c2ccncc2)s1)c1cc(-c2ccccc2)nc2ccc(OC(F)(F)F)cc12 [Ib-8, 2-phenyl-N-[5-(4-pyridyl)-1,3,4-thiadiazol-2-yl]-6-trifluoromethoxy-4-quinolinecarboxamide] | 65% | 80%
13 | O=C(Nc1nnc(-c2ccccc2Cl)o1)c1cc(-c2ccccc2)nc2ccc(Cl)cc12 [Ia-112, 6-chloro-N-[5-(2-chlorophenyl)-1,3,4-oxadiazol-2-yl]-2-phenyl-4-quinolinecarboxamide] | > 100% | 69%
14 | O=C(Nc1nnc(-c2ccco2)o1)c1cc(-c2ccccc2O)nc2ccccc12 [Ia-38, N-[5-(2-furyl)-1,3,4-oxadiazol-2-yl]-2-(2-hydroxyphenyl)-4-quinolinecarboxamide] | > 100% | 50%
15 | O=C(Nc1nnc(-c2ccco2)o1)c1cc(-c2ccc(OC(F)F)cc2)nc2ccccc12 [Ia-49, 2-(4-difluoromethoxyphenyl)-N-[5-(2-furyl)-1,3,4-oxadiazol-2-yl]-4-quinolinecarboxamide] | > 100% | 51%
16 | O=C(Nc1nnc(Br)s1)c1cc(-c2ccccc2)nc2ccccc12 [Ib-2, N-(5-bromo-1,3,4-thiadiazol-2-yl)-2-phenyl-4-quinolinecarboxamide] | > 100% | 79%

Row | Compound | inhibition at 100 µM [1] | inhibition at 20 µM [2]
17 | COc1cccc(-c2cc(C(=O)Nc3nnc(-c4ccco4)o3)c3ccccc3n2)c1 [Ia-42, N-[5-(2-furyl)-1,3,4-oxadiazol-2-yl]-2-(3-methoxyphenyl)-4-quinolinecarboxamide] | 92% | 92%
18 | CCC(=O)Nc1ccc2nc(-c3ccccc3)cc(C(=O)Nc3nnc(-c4ccco4)o3)c2c1 [Ia-93, N-[5-(2-furyl)-1,3,4-oxadiazol-2-yl]-2-phenyl-6-propionylamino-4-quinolinecarboxamide] | 72% | 67%
19 | O=C(Nc1nnc(Cc2ccccc2)o1)c1cc(-c2ccccc2)nc2ccccc12 [Ia-83, N-(5-benzyl-1,3,4-oxadiazol-2-yl)-2-phenyl-4-quinolinecarboxamide] | > 100% | 90%
20 | O=C(Nc1nnc(-c2ccco2)o1)c1cc(-c2cccc(Cl)c2)nc2ccccc12 [Ia-41, 2-(3-chlorophenyl)-N-[5-(2-furyl)-1,3,4-oxadiazol-2-yl]-4-quinolinecarboxamide] | > 100% | 55%
21 | COc1ccccc1-c1nnc(NC(=O)c2cc(-c3ccccc3)nc3ccccc23)o1 [Ia-c, N-[5-(2-methoxyphenyl)-1,3,4-oxadiazol-2-yl]-2-phenyl-4-quinolinecarboxamide] | 67% | 97%
22 | Cc1ccc(-c2cc(C(=O)Nc3nnc(-c4ccco4)o3)c3ccccc3n2)cc1 [Ia-48, N-[5-(2-furyl)-1,3,4-oxadiazol-2-yl]-2-(4-methylphenyl)-4-quinolinecarboxamide] | 92% | 69%
23 | Cc1ccc2nc(-c3cccs3)cc(C(=O)Nc3nnc(-c4ccco4)o3)c2c1 [Ia-29, N-[5-(2-furyl)-1,3,4-oxadiazol-2-yl]-6-methyl-2-(2-thienyl)-4-quinolinecarboxamide] | 65% | 98%
24 | COc1ccc(-c2cc(C(=O)Nc3nnc(-c4ccco4)o3)c3ccccc3n2)cc1OC [Ia-57, N-[5-(2-furyl)-1,3,4-oxadiazol-2-yl]-2-(3,4-dimethoxyphenyl)-4-quinolinecarboxamide] | > 100% | 64%
25 | O=C(Nc1nnc(-c2ccccc2)o1)c1cc(-c2ccccc2)nc2ccc(Cl)cc12 [Ia-110, 6-chloro-2-phenyl-N-(5-phenyl-1,3,4-oxadiazol-2-yl)-4-quinolinecarboxamide] | 89% | 65%
26 | O=C(Nc1nnc(-c2ccccc2Cl)o1)c1cc(-c2ccccc2)nc2ccc(OC(F)(F)F)cc12 [Ia-113, N-[5-(2-chlorophenyl)-1,3,4-oxadiazol-2-yl]-2-phenyl-6-trifluoromethoxy-4-quinolinecarboxamide] | > 100% | 76%
27 | O=C(Nc1nnc(-c2cccs2)o1)c1cc(-c2ccccc2)nc2ccccc12 [Ia-a, 2-phenyl-N-[5-(2-thienyl)-1,3,4-oxadiazol-2-yl]-4-quinolinecarboxamide] | 86% | 89%
28 | O=C(Nc1nnc(-c2ccco2)o1)c1cc(-c2ccc(F)cc2)nc2ccccc12 [Ia-46, 2-(4-fluorophenyl)-N-[5-(2-furyl)-1,3,4-oxadiazol-2-yl]-4-quinolinecarboxamide] | 80% | 54%
29 | O=C(Nc1nnc(-c2ccccc2)o1)c1cc(-c2ccccc2)nc2ccc(OC(F)(F)F)cc12 [Ia-111, N-(5-phenyl-1,3,4-oxadiazol-2-yl)-2-phenyl-6-trifluoromethoxy-4-quinolinecarboxamide] | > 100% | 87%
30 | O=C(Nc1nnc(-c2ccco2)o1)c1cc(-c2ccccc2)nc2ccc(-c3ccncc3)cc12 [Ia-76, N-[5-(2-furyl)-1,3,4-oxadiazol-2-yl]-2-phenyl-6-(4-pyridyl)-4-quinolinecarboxamide] | > 100% | 84%
31 | CC(C)Oc1cccc(-c2cc(C(=O)Nc3nnc(-c4ccncc4)s3)c3ccccc3n2)c1 [Ib-b, 2-(3-isopropoxyphenyl)-N-[5-(4-pyridyl)-1,3,4-thiadiazol-2-yl]-4-quinolinecarboxamide] | > 100% | 97%
32 | O=C(Nc1nnc(-c2ccco2)o1)c1cc(-c2ccccc2)nc2ccc(-c3ccsc3)cc12 [Ia-99, N-[5-(2-furyl)-1,3,4-oxadiazol-2-yl]-6-(3-thienyl)-2-phenyl-4-quinolinecarboxamide] | 73% | 93%
